Source: US5580956A, “Phospholipase C-inhibiting peptides” (priority 1992, dated 1996)
Peptide text beside a SMILES is read from it. * marks the point of attachment. Benzoyl(2,5-(OH)2) = O=C(c1cc(O)ccc1O)*; Benzoyl(2,3-diOH) = O=C(c1cccc(O)c1O)*; Propanoyl(3-cHex) = O=C(CCC1CCCCC1)*; Propanoyl(3-cPent) = O=C(CCC1CCCC1)*; Cyclopentylacetyl = O=C(CC1CCCC1)*; Octanoyl = CCCCCCCC(=O)*; X1 = O=C(c1ccc(O)cc1O)*; X2 = O=C(c1ccc(=O)oc1)*

Tests used:
[1] = target: T1, PLC-γ1 (Bos taurus, UniProt P08487); test: PLC-inhibiting activity (release of [3H]inositol phosphate from [3H]PIP2); format: biochemical, bovine; settings: PI-PLC-γ1, 37° C., 10 minutes
T1 construct: A sample (PLC-γ1) was prepared from bovine thymus according to the method of Y. Homma et al; from tissue; host or cells: bovine thymus
T1 sequence (P08487 1-1291): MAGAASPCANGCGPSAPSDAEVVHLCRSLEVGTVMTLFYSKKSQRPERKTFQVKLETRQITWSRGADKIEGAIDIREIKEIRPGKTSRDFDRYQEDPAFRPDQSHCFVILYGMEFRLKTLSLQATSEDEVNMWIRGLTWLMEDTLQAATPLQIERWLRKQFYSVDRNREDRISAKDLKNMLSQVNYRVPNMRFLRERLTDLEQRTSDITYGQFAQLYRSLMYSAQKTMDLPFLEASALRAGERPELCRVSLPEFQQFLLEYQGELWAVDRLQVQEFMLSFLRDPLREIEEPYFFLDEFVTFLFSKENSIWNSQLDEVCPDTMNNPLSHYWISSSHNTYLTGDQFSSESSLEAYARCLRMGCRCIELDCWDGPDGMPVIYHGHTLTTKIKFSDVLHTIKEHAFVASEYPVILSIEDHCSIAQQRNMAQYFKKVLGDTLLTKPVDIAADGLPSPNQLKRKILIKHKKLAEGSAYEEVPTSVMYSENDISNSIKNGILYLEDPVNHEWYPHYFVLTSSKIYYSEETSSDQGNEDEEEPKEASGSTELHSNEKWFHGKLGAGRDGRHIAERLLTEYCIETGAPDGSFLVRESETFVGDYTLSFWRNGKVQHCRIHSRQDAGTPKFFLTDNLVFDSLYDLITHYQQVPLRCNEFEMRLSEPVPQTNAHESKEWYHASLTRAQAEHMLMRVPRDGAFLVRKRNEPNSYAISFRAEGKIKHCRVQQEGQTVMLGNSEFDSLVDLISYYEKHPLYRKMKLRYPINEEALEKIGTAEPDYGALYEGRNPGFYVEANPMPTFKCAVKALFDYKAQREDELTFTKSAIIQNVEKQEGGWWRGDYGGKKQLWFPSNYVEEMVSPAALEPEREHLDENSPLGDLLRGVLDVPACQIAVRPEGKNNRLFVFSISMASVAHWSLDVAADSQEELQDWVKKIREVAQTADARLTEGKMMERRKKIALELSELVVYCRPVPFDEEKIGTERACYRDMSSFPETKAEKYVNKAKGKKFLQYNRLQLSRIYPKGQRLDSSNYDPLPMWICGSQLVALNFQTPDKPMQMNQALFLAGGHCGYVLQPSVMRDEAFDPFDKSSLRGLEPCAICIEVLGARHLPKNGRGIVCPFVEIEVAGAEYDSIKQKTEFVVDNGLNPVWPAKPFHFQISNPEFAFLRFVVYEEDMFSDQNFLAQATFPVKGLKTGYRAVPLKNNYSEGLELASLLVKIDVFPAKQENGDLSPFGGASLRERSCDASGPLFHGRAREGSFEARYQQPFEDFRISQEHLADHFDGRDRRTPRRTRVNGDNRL
Procedure: A sample (PLC-γ1) was prepared from bovine thymus according to the method of Y. Homma et al. described in Biochemical Journal [(Biochem. J.), 269, 13 (1990)]. A solution having the composition listed in Table 1 below was prepared in advance on the ice and the reaction was begun with heating to 37° C. After incubation for 10 minutes, 2 ml of a solution mixture of chloroform/methanol (2:[…]) was added thereto to stop the reaction. The resulting inositol phosphate was extracted with 0.5 ml of 1N hydrochloric acid. Two-phase distribution was carried out by centrifugation (2000×g, 3 minutes), and the amount of ^3 H contained in 0.7 ml of the supernatant was measured with scintillation counter. […] The obtained value of specific radioactivity was defined as "A", the value of specific radioactivity obtained when an equivalent amount of water was added instead of the aqueous solution of the test peptide was defined as "B", the value of specific radioactivity obtained when an equivalent amount of water was added instead of the sample and the aqueous solution of the test peptide was defined as "C", and the inhibition rate (X) was determined according to the following equation. X(%)=[…]

[2] = test system: KMS-4 cells; test: Cell proliferation-inhibiting activity (BrdU incorporation, Amersham Cell Proliferation Detection Kit); format: cell-based; settings: Concentration 31 μM, 17 hours with peptide, BrdU-stained cells
Procedure: The following procedure was carried out with an Amersham Cell Proliferation Detection Kit. First, cells [KMS-4; M. Nanba et al., International Journal of Cancer, 32, 697 (1983)] were suspended in a DMEM culture medium (product of Nissui Seiyaku) containing 10% fetal calf serum to a concentration of 1-2×10^4 cells/ml, and 1 ml of the above-mentioned cell suspension was put into each well of a 24-well plate (product of Corning Co.). The cells were cultured for 2 days in a CO2 incubator (37° C., 5% CO2). Next, the culture medium was exchanged with a DMEM medium containing 10% fetal calf serum, and then the test peptide was added thereto and culturing was carried out for 17 hours. The culture medium was again exchanged with a serum-free DMEM medium, 0.5 ml of a solution of the reagents labelled 5-bromo-2'-deoxyuridine (BrdU) and 5-fluoro-2'-deoxyuridine (FdU) [10:1] diluted 1000-fold with the same medium was added to each well, and cultured for 2 hours. The culture medium was removed, and the cells were immobilized with an acetic acid/ethanol solution. The immobilized cells were stained according to the method for the Amersham Cell Proliferation Kit, and then further stained with a 1% Giemsa solution (product of Merck Co.). The number of cells incorporating BrdU and the total cell count within 1 field of vision of the microscope (approximately 200 cells) were determined, and the proportion (%) of stained cells per field of vision was calculated. Furthermore, the same procedure was repeated 10 times, and the average value thereof was defined as the cell proliferation activity (%). The cell proliferation-inhibiting activity was calculated in the following manner. The proliferation activity without addition of peptide was defined as "A", the proliferation activity with addition of the test peptide was defined as "B", and the cell proliferation inhibition rate (X) was determined according to the following equation. X (%)=[…]

[3] = Concentration 120 μM (aqueous solution of test peptide), read-out: Inhibition rate (%)

Row | Compound | inhibition at 120 µM (stock) [1, 3] | Cell proliferation inhibition rate (%) [2] | further results
1 | CSCC[C@H](NC(=O)[C@H](CCCCN)NC(=O)[C@H](CCCNC(=N)N)NC(=O)[C@H](Cc1ccc(O)cc1)NC(=O)[C@H](CC(C)C)NC(=O)c1ccc(=O)oc1)C(=O)N[C@@H](CCCNC(=N)N)C(=O)N[C@@H](CC(C)C)C(=O)N[C@@H](CCCNC(=N)N)C(=O)N[C@@H](Cc1ccc(O)cc1)C(=O)N1CCC[C@H]1C(=O)N[C@H](C(N)=O)C(C)C [(I-12), C5 H3 O2 CO-Leu-Tyr-Arg-Lys-Met-Arg-Leu-Arg-Tyr-Pro-Val-NH2] (X2-LYRKMRLRYPV-NH2) | 40% | 69% | –
2 | CSCC[C@H](NC(=O)[C@H](CCCCN)NC(=O)[C@H](CCCNC(=N)N)NC(=O)[C@H](Cc1ccc(O)cc1)NC(=O)[C@H](CC(C)C)NC(=O)c1cccc(O)c1O)C(=O)N[C@@H](CCCNC(=N)N)C(=O)N[C@@H](CC(C)C)C(=O)N[C@@H](CCCNC(=N)N)C(=O)N[C@@H](Cc1ccc(O)cc1)C(=O)N1CCC[C@H]1C(=O)N[C@H](C(N)=O)C(C)C [(I-13), (HO)2 C6 H3 CO-Leu-Tyr-Arg-Lys-Met-Arg-Leu-Arg-Tyr-Pro-Val-NH2] ({Benzoyl(2,3-diOH)}-LYRKMRLRYPV-NH2) | – | 69% | inhibition at 610 µM (stock) ([1]; Concentration 610 μM (aqueous solution of test peptide), read-out: Inhibition rate (%)): 89%
3 | CSCC[C@H](NC(=O)[C@H](CCCCN)NC(=O)[C@H](CCCNC(=N)N)NC(=O)[C@H](Cc1ccc(O)cc1)NC(=O)[C@H](CC(C)C)NC(=O)c1ccc(O)cc1O)C(=O)N[C@@H](CCCNC(=N)N)C(=O)N[C@@H](CC(C)C)C(=O)N[C@@H](CCCNC(=N)N)C(=O)N[C@@H](Cc1ccc(O)cc1)C(=O)N1CCC[C@H]1C(=O)N[C@H](C(N)=O)C(C)C [(I-14), (HO)2 C6 H3 CO-Leu-Tyr-Arg-Lys-Met-Arg-Leu-Arg-Tyr-Pro-Val-NH2] (X1-LYRKMRLRYPV-NH2) | 45% | 59% | –
4 | CSCC[C@H](NC(=O)[C@H](CCCCN)NC(=O)[C@H](CCCNC(=N)N)NC(=O)[C@H](Cc1ccc(O)cc1)NC(=O)[C@H](CC(C)C)NC(=O)c1cc(O)ccc1O)C(=O)N[C@@H](CCCNC(=N)N)C(=O)N[C@@H](CC(C)C)C(=O)N[C@@H](CCCNC(=N)N)C(=O)N[C@@H](Cc1ccc(O)cc1)C(=O)N1CCC[C@H]1C(=O)N[C@H](C(N)=O)C(C)C [(I-15), (HO)2 C6 H3 CO-Leu-Tyr-Arg-Lys-Met-Arg-Leu-Arg-Tyr-Pro-Val-NH2] ({Benzoyl(2,5-(OH)2)}-LYRKMRLRYPV-NH2) | 41% | 66% | –
5 | CSCC[C@H](NC(=O)[C@H](CCCCN)NC(=O)[C@H](CCCNC(=N)N)NC(=O)[C@H](Cc1ccc(O)cc1)NC(=O)[C@H](CC(C)C)NC(=O)CCC1CCCCC1)C(=O)N[C@@H](CCCNC(=N)N)C(=O)N[C@@H](CC(C)C)C(=O)N[C@@H](CCCNC(=N)N)C(=O)N[C@@H](Cc1ccc(O)cc1)C(=O)N1CCC[C@H]1C(=O)N[C@H](C(N)=O)C(C)C [(I-16), C6 H11 CH2 CH2 CO-Leu-Tyr-Arg-Lys-Met-Arg-Leu-Arg-Tyr-Pro-Val-NH2] ({Propanoyl(3-cHex)}-LYRKMRLRYPV-NH2) | 51% | 84% | –
6 | CSCC[C@H](NC(=O)[C@H](CCCCN)NC(=O)[C@H](CCCNC(=N)N)NC(=O)[C@H](Cc1ccc(O)cc1)NC(=O)[C@H](CC(C)C)NC(=O)CC1CCCC1)C(=O)N[C@@H](CCCNC(=N)N)C(=O)N[C@@H](CC(C)C)C(=O)N[C@@H](CCCNC(=N)N)C(=O)N[C@@H](Cc1ccc(O)cc1)C(=O)N1CCC[C@H]1C(=O)N[C@H](C(N)=O)C(C)C [(I-17), C5 H9 CH2 CO-Leu-Tyr-Arg-Lys-Met-Arg-Leu-Arg-Tyr-Pro-Val-NH2] (Cyclopentylacetyl-LYRKMRLRYPV-NH2) | 53% | 72% | –
7 | CCCCCCCC(=O)N[C@@H](CC(C)C)C(=O)N[C@@H](Cc1ccc(O)cc1)C(=O)N[C@@H](CCCNC(=N)N)C(=O)N[C@@H](CCCCN)C(=O)N[C@@H](CCSC)C(=O)N[C@@H](CCCNC(=N)N)C(=O)N[C@@H](CC(C)C)C(=O)N[C@@H](CCCNC(=N)N)C(=O)N[C@@H](Cc1ccc(O)cc1)C(=O)N1CCC[C@H]1C(=O)N[C@H](C(N)=O)C(C)C [(I-21), CH3 (CH2)6 CO-Leu-Tyr-Arg-Lys-Met-Arg-Leu-Arg-Tyr-Pro-Val-NH2] (Octanoyl-LYRKMRLRYPV-NH2) | 86% | 56% | –
8 | CSCC[C@H](NC(=O)[C@H](CCCCN)NC(=O)[C@H](CCCNC(=N)N)NC(=O)[C@H](Cc1ccc(O)cc1)NC(=O)[C@H](CC(C)C)NC(=O)CCC1CCCC1)C(=O)N[C@@H](CCCNC(=N)N)C(=O)N[C@@H](CC(C)C)C(=O)N[C@@H](CCCNC(=N)N)C(=O)N[C@@H](Cc1ccc(O)cc1)C(=O)N1CCC[C@H]1C(=O)N[C@H](C(N)=O)C(C)C [(I-23), C5 H9 CH2 CH2 CO-Leu-Tyr-Arg-Lys-Met-Arg-Leu-Arg-Tyr-Pro-Val-NH2] ({Propanoyl(3-cPent)}-LYRKMRLRYPV-NH2) | 53% | 53% | –
9 | H-Glu-Lys-His-Ala-Leu-Tyr-Arg-Lys-Met -Arg-Leu-Arg-Tyr-Pro-Val-OH (H-EKHALYRKMRLRYPV-OH) [Compound (I-4)] | – | – | Inhibition rate (%) ([1]; Concentration 120 μM (aqueous solution of test peptide)): 73%
10 | H-Leu-Tyr-Arg-Lys-Met-Arg-Leu-Arg-Tyr-Pro-Val-OH (H-LYRKMRLRYPV-OH) [Compound (I-5)] | – | – | Inhibition rate (%) ([1]; Concentration 125 μM (aqueous solution of test peptide)): 70%
11 | H-SLVELVSYYEKHALYRKMRLRYPV-OH [Compound (I-1)] | – | – | inhibition at 15 µM (stock) ([1]; Concentration 15 μM (aqueous solution of test peptide), read-out: Inhibition rate (%)): 55%; inhibition at 55 µM (stock) ([1]; Concentration 55 μM (aqueous solution of test peptide), read-out: Inhibition rate (%)): 88%
12 | H-Ser-Leu-Val-Glu-Leu-Val-Ser-Tyr-Tyr-Glu-Lys-His-Ala-OH (H-SLVELVSYYEKHA-OH) [Compound (I-6)] | – | – | Inhibition rate (%) ([1]; Concentration 105 μM (aqueous solution of test peptide)): 70%
13 | H-YRKMRLRY-OH [Compound (I-7), H-Tyr-Arg-Lys-Met-Arg-Leu-Arg-Tyr-OH] | 70% | – | –
